Reference: patent publication US6521736B2, “Amphiphilic polymeric materials” (priority 2000, dated 2003)

Tests used:
mammalian cell cultures = test: Cell growth, morphology and viability (XTT dye) in mammalian cell cultures; assay type: cell-based; conditions: 1 mM extracellular unencapsulated drug
Description: […] At higher concentrations (e.g., 30 μM), loss of cell viability was seen. Host cell translation was monitored by the expression of inducible β-galactosidase activity; cell viability was monitored spectrophotometrically using XTT dye.

[1] = Encapsulation of small molecules in PEG-1500-DMOI micelles, determined by UV spectroscopy; assay type: physicochemical; conditions: for loading of complexed drug: complexed with PEG-1500-DMOI from 4:1 chloroform/methanol, taken up in water, UV
Description: Benzo[a]Pyrene (BP), a dye and potent carcinogen, was chosen as a hydrophobic model because BP encapsulation within aqueous micelles of the PEG-1500-DMOI polymer can be monitored by UV absorption spectroscopy. The amount of dye encapsulated in the micelles was readily determined by UV spectroscopy since an absorbance signal due to benzo[a]pyrene appeared in the 340-450 nm region only when the dye was solubilized within the aqueous micelle. Different concentrations of dye were prepared in dichloromethane and each was added to a constant amount of polymeric micelle solution (1 ml of 100 mg/ml). Polymer-dye complex films were cast on glass and dried under vacuum at room temperature overnight. The films were then removed and redissolved in water by sonication at 35° C. for 10 minutes, and purified by filtration from excess dye. A homogenous, stable solution of the dye was formed at concentrations of more than 0.25 wt %, indicating partitioning of the dye into the micellar core. The maximum loading capacity of the dye was 0.88% (w/w). […] A partition coefficient of 5×10^4 was determined, indicating strong partitioning.
In other experiments using this encapsulation method, PEG-1500-DMOI was complexed with either camptothecin or etoposide by combining the polymer and drug in a 4:1 chloroform/methanol mixture, then evaporating the resulting mixture overnight at room temperature under vacuum. The residue was treated with 5 ml water and filtered to remove any uncomplexed camptothecin. The solution was then examined with UV spectroscopy to determine the amount of complexed drug.

HIVLAI = conditions: unencapsulated drug; cited from earlier work
CD4+HeLa cells = conditions: non-encapsulated drug; cited from earlier work
HIV-1 Rev = conditions: CD4+HeLa cells, non-encapsulated drug; cited from earlier work
[2] = in aqueous PEG-1500-DMOI micelles

In the case of C=C(NC(=O)C(=C)NC(=O)c1csc(C2=N[C@@H]3c4csc(n4)[C@H]4NC(=O)c5csc(n5)[C@H]([C@](C)(O)[C@@H](C)O)NC(=O)[C@H]5CSC(=N5)/C(=C/C)NC(=O)[C@H]([C@@H](C)O)NC(=O)c5csc(n5)[C@]3(CC2)NC(=O)[C@H](C)NC(=O)C(=C)NC(=O)[C@H](C)NC(=O)[C@H]([C@@H](C)CC)N[C@@H]2C=Cc3c([C@H](C)O)cc(nc3[C@H]2O)C(=O)O[C@@H]4C)n1)C(N)=O [unencapsulated thiostrepton, thiostrepton], the “effect on cell growth or cell morphology” value (mammalian cell cultures) is reported as “no detectable effect”.
With c1ccc2c(c1)cc1ccc3cccc4ccc2c1c34 [Benzo[a]Pyrene] the partition coefficient [1] was 5×10^4, the “dye concentration at which a homogenous, stable solution was formed” value [1, 2] was “more than 0.25 wt %” and the “maximum loading capacity of the dye” value [1, 2] was 0.88 % (w/w).
In the case of COc1cc([C@@H]2c3cc4c(cc3[C@@H](O[C@@H]3O[C@@H]5CO[C@@H](C)O[C@H]5[C@H](O)[C@H]3O)[C@H]3COC(=O)[C@H]23)OCO4)cc(OC)c1O [etoposide], the “loading of complexed drug” value [1] is reported as 3.1 % (w/w).
For CC[C@@]1(O)C(=O)OCc2c1cc1n(c2=O)Cc2cc3ccccc3nc2-1 [camptothecin], the “loading of complexed drug” value [1] was 1.25 % (w/w).
For NC[C@@H]1O[C@H](O[C@H]2[C@@H](O)[C@H](O[C@@H]3[C@@H](O)[C@H](N)C[C@H](N)[C@H]3O[C@H]3O[C@H](CN)[C@@H](O)[C@H](O)[C@H]3N)O[C@@H]2CO)[C@H](N)[C@@H](O)[C@@H]1O [unencapsulated neomycin B, neomycin B], the “concentration that inhibits HIV production, previously reported” value (HIVLAI) is listed as 2,500-5,000 μM.
For “kazugamycin [non-encapsulated kazugamycin]”, the “concentration at which decreased cell proliferation and necrosis occur” value (CD4+HeLa cells) is listed as 35 µM and the “concentration that blocks HIV-1 Rev function” value (HIV-1 Rev) is listed as 25 µM.
